Results published in ChEMBL document CHEMBL5390241, “Natural Enfumafungin Analogues from Hormonema carpetanum and Their Antifungal Activities” (2023).
≈ marks a conversion by molar mass, not a printed value.

Key:
Format in all cases: functional
Candida albicans [1] = assay: Antifungal activity against Candida albicans SC5314 assessed as inhibition in growth incubated for 48 hrs by broth microdilution method
Candida albicans [2] = assay: Antifungal activity against Candida albicans 10231 assessed as inhibition in growth incubated for 48 hrs by broth microdilution method
Candida tropicalis = assay: Antifungal activity against Candida tropicalis 8915 assessed as inhibition in growth incubated for 48 hrs by broth microdilution method
Nakaseomyces glabratus = assay: Antifungal activity against Candida glabrata 537 assessed as inhibition in growth incubated for 48 hrs by broth microdilution method
[Candida] auris [3] = Antifungal activity against Candida auris 919 assessed as inhibition in growth incubated for 48 hrs by broth microdilution method; settings: Candidozyma auris
[Candida] auris [4] = Antifungal activity against Candida auris 918 assessed as inhibition in growth incubated for 48 hrs by broth microdilution method; settings: Candidozyma auris
Candida parapsilosis = assay: Antifungal activity against Candida parapsilosis 22019 assessed as inhibition in growth incubated for 48 hrs by broth microdilution method; settings: Lodderomyces parapsilosis
Cryptococcus neoformans [5] = assay: Antifungal activity against Cryptococcus neoformans 32609 assessed as inhibition in growth incubated for 48 hrs by broth microdilution method
Cryptococcus neoformans [6] = assay: Antifungal activity against Cryptococcus neoformans H99 assessed as inhibition in growth incubated for 48 hrs by broth microdilution method
Pichia kudriavzevii = assay: Antifungal activity against candida krusei 4996 assessed as inhibition in growth incubated for 48 hrs by broth microdilution method

OC(Cn1cncn1)(Cn1cncn1)c1ccc(F)cc1F [FLUCONAZOLE]
MIC80 (Candida albicans [1]): 1 µg/mL (≈ 3.27 µM) | MIC80 (Candida albicans [2]): > 64 µg/mL | MIC80 (Candida tropicalis): > 64 µg/mL | MIC80 (Nakaseomyces glabratus): 1 µg/mL (≈ 3.27 µM) | MIC80 ([Candida] auris [3]): > 64 µg/mL | MIC80 ([Candida] auris [4]): > 64 µg/mL | MIC80 (Candida parapsilosis): 4 µg/mL (≈ 13.1 µM) | MIC80 (Cryptococcus neoformans [5]): 1 µg/mL (≈ 3.27 µM) | MIC80 (Cryptococcus neoformans [6]): > 64 µg/mL | MIC80 (Pichia kudriavzevii): > 64 µg/mL

CC(=O)O[C@@H]1C[C@]23C4=CC[C@@]5(C)[C@@H]6C(=O)C[C@H](C(C)C)[C@@]6(C)CC[C@]5(C)[C@H]4CC[C@H]2[C@@](C)(COC3O)[C@H]1O[C@@H]1O[C@H](CO)[C@@H](O)[C@H](O)[C@H]1O (stereo not given in full)
MIC80 (Candida albicans [1]): 64 µg/mL (≈ 92.6 µM) | MIC80 (Candida albicans [2]): 32 µg/mL (≈ 46.3 µM) | MIC80 (Candida tropicalis): 64 µg/mL (≈ 92.6 µM) | MIC80 (Nakaseomyces glabratus): 16 µg/mL (≈ 23.2 µM) | MIC80 ([Candida] auris [3]): > 64 µg/mL | MIC80 ([Candida] auris [4]): > 64 µg/mL | MIC80 (Candida parapsilosis): > 64 µg/mL | MIC80 (Cryptococcus neoformans [5]): 64 µg/mL (≈ 92.6 µM) | MIC80 (Cryptococcus neoformans [6]): 32 µg/mL (≈ 46.3 µM) | MIC80 (Pichia kudriavzevii): 64 µg/mL (≈ 92.6 µM)

CC(C)[C@@H](C)[C@@]1(C)CC[C@]2(C)[C@H]3CC[C@H]4[C@@]5(C)COC(O)[C@@]4(C[C@@H](O)[C@@H]5O[C@@H]4O[C@H](CO)[C@@H](O)[C@H](O)[C@H]4O)C3=CC[C@@]2(C)[C@@H]1C(=O)O (stereo not given in full)
MIC80 (Candida albicans [1]): > 64 µg/mL | MIC80 (Candida albicans [2]): > 64 µg/mL | MIC80 (Candida tropicalis): > 64 µg/mL | MIC80 (Nakaseomyces glabratus): 32 µg/mL (≈ 48 µM) | MIC80 ([Candida] auris [3]): > 64 µg/mL | MIC80 ([Candida] auris [4]): > 64 µg/mL | MIC80 (Candida parapsilosis): > 64 µg/mL | MIC80 (Cryptococcus neoformans [5]): > 64 µg/mL | MIC80 (Cryptococcus neoformans [6]): > 64 µg/mL | MIC80 (Pichia kudriavzevii): 64 µg/mL (≈ 96 µM)

CC(=O)O[C@@H]1C[C@]23C4=CC[C@@]5(C)[C@H](C(=O)O)[C@@](C)([C@H](C)C(C)C)CC[C@]5(C)[C@H]4CC[C@H]2[C@@](C)(COC3O)[C@H]1O[C@@H]1O[C@H](CO)[C@@H](O)[C@H](O)[C@H]1O (stereo not given in full) [ENFUMAFUNGIN]
MIC80 (Candida albicans [1]): 4 µg/mL (≈ 5.64 µM) | MIC80 (Candida albicans [2]): 4 µg/mL (≈ 5.64 µM) | MIC80 (Candida tropicalis): 4 µg/mL (≈ 5.64 µM) | MIC80 (Nakaseomyces glabratus): 8 µg/mL (≈ 11.3 µM) | MIC80 ([Candida] auris [3]): 64 µg/mL (≈ 90.3 µM) | MIC80 ([Candida] auris [4]): 64 µg/mL (≈ 90.3 µM) | MIC80 (Candida parapsilosis): 8 µg/mL (≈ 11.3 µM) | MIC80 (Cryptococcus neoformans [5]): 8 µg/mL (≈ 11.3 µM) | MIC80 (Cryptococcus neoformans [6]): 4 µg/mL (≈ 5.64 µM) | MIC80 (Pichia kudriavzevii): 8 µg/mL (≈ 11.3 µM)
